Values of other authors as cited in patent US20040037880A1, “Extended release formulation of divalproex sodium” (priority 2002, published 2004).
Read-outs that look alike come from different tables or passages of the source.

Which results are given for CCCC(CCC)C(=O)O [valproic acid]?
elimination half-life (adults): 6 to 17 h; elimination half-life (children): 4 to 14 h
